The data set can be described thus: Dissolution time of a 2.5-micron encapsulated microbubble in air-saturated liquid. In kind it is physicochemical. The settings on record: for Dissolution time: 2.5-micron encapsulated microbubble, air-saturated liquid.

For the compound `FC(F)(F)C(F)(F)C(F)(F)C(F)(F)C(F)(F)C(F)(F)F` [Perfluorohexane], the “stability of microbubbles relative to microbubbles containing C5F12” value (from Table 4) is reported as “only minimal increase in stability”.

On to `FC(F)(F)C(F)(F)C(F)(F)C(F)(F)C(F)(F)F` [Perfluoropentane (DDFP), Perfluoropentane], for which the Dissolution time is given as 17 days. Further, where the note is “from Table 4”, the “stability of microbubbles relative to microbubbles containing C3F8” value was ~14,000 times and the “stability of microbubbles relative to microbubbles containing C4F10” value is “about five”.

`FC(F)(F)C(F)(F)C(F)(F)F` [Perfluoropropane] showed a Dissolution time of 0.0292 days.

In turn, `FC(F)(F)C(F)(F)C(F)(F)C(F)(F)F` [Perfluorobutane] displayed a Dissolution time of 3.46 days.

The record behind these values is US20210321985A1, “COMPOSITIONS AND METHODS FOR TARGETED CONTRAST AGENTS FOR MOLECULAR IMAGING” (ARIZONA BOARD OF REGENTS ON BEHALF OF THE UNIVERSITY OF …, priority 2016, published 2021).
